Results taken from patent publication US20040157738A1, “Novel oxygen containing fused cyclic derivatives and herbicidal, desiccant and defoliate compositions containing them” (ISHIHARA SANGYO KAISHA, LTD., priority 2003, published 2004).

Key:
Assay type in all cases: in vivo
[1] = test system: rice (Oryza sativa L.), ORYSA; experiment: Test Example 2: post-emergence (foliage treatment) herbicidal activity (growth controlling degree); settings: 1.6-2.2 leaf stage; for growth controlling degree, ORYSA / plant injury at 31 g/ha: 31 g a.i./ha; for plant injury at 31 g/ha / plant injury at 63 g/ha: Oryza sativa, 504 h; for plant injury at 63 g/ha: 63 g a.i./ha
Excerpt: (§1) Upland field soil was put into a 1/170,000 ha pot, and seeds of various plants were sown. Then, when the plants reached predetermined leaf stages [I. barnyardgrass (Echinochloa crus-galli L.), ECHCG: 1.8-2.4 leaf stage, 2. crabgrass (Digitaria sanguinalis L.), DIGSA: 1.5-2.2 leaf stage, 3. green foxtail (Setaria viridis L.), SETVI: 1.7-2.5 leaf stage, 4. redroot pigweed (Amaranthus retroflexus L.), AMARE: 0.1-0.3 leaf stage, 5. prickly sida (Sida spinosa L.), SIDSP: 0.3-0.5 leaf stage, 6. velvetleaf (Abutilon theophrasti), ABUTH: 0.3-0.4 leaf stage, 7. common cocklebur (Xanthium strumarium L.), XANST: 0.2-0.6 leaf stage, 8. rice (Oryza sativa L.), ORYSA: 1.6-2.2 leaf stage, 9. wheat (Triticum aestivum L.), TRZAX: 2.8 leaf stage, 10. corn (Zea mays L.), ZEAMX: 2.2-2.5 leaf stage, 11. soybean (Glycine max Merr.), GLXMA: 0.2-0.3 leaf stage], a wettable powder or emulsifiable concentrate having the compound of the present invention formulated in accordance with a usual formulation method, was weighed so that the active ingredient would be a predetermined amount, and diluted with water in an amount of 500 L/ha. To the diluted solution, 0.1%(v/v) of an agricultural spreader was added. The herbicide adjusted was applied by a small size sprayer for foliage treatment. On the […] day after the application of the herbicide, the growth of the respective plants was visually observed, and the herbicidal effects were evaluated by growth controlling degrees (%) ranging from 0 (equivalent to the untreated control) to 100 (complete kill), whereby the results shown in Table 12, were obtained. Compound Nos. in Table 12 correspond to Compound Nos. in Table 1 to 7 given hereinbefore.

[2] = test system: redroot pigweed (Amaranthus retroflexus L.), AMARE; experiment: as above; settings: 0.1-0.3 leaf stage
Excerpt: as §1

[3] = test system: crabgrass (Digitaria sanguinalis L.), DIGSA; experiment: as above; settings: 1.5-2.2 leaf stage; for growth controlling degree, DIGSP / pest or weed control at 31 g/ha: 31 g a.i./ha; for pest or weed control at 31 g/ha / pest or weed control at 63 g/ha: Digitaria sanguinalis, 504 h, read-out: growth controlling degree, DIGSP; for pest or weed control at 63 g/ha: 63 g a.i./ha
Excerpt: as §1

[4] = test system: barnyardgrass (Echinochloa crus-galli L.), ECHCG; experiment: as above; settings: 1.8-2.4 leaf stage; for growth controlling degree, ECHCG / pest or weed control at 31 g/ha: 31 g a.i./ha; for pest or weed control at 31 g/ha / pest or weed control at 63 g/ha: Echinochloa crus-galli, 504 h; for pest or weed control at 63 g/ha: 63 g a.i./ha
Excerpt: as §1

[5] = test system: soybean (Glycine max Merr.), GLXMA; experiment: as above; settings: 0.2-0.3 leaf stage; for growth controlling degree, GLXMA / pest or weed control at 31 g/ha: 31 g a.i./ha; for pest or weed control at 31 g/ha / pest or weed control at 63 g/ha: Glycine max, 504 h; for pest or weed control at 63 g/ha: 63 g a.i./ha
Excerpt: as §1

[6] = test system: prickly sida (Sida spinosa L.), SIDSP; experiment: as above; settings: 0.3-0.5 leaf stage; for growth controlling degree, SIDSP / pest or weed control at 31 g/ha: 31 g a.i./ha; for pest or weed control at 31 g/ha / pest or weed control at 63 g/ha: Sida spinosa, 504 h; for pest or weed control at 63 g/ha: 63 g a.i./ha
Excerpt: as §1

[7] = test system: green foxtail (Setaria viridis L.), SETVI; experiment: as above; settings: 1.7-2.5 leaf stage; for growth controlling degree, SETVI / pest or weed control at 31 g/ha: 31 g a.i./ha; for pest or weed control at 31 g/ha / pest or weed control at 63 g/ha: Setaria viridis, 504 h; for pest or weed control at 63 g/ha: 63 g a.i./ha
Excerpt: as §1

[8] = test system: common cocklebur (Xanthium strumarium L.), XANST; experiment: as above; settings: 0.2-0.6 leaf stage; for growth controlling degree, XANST / pest or weed control at 31 g/ha: 31 g a.i./ha; for pest or weed control at 31 g/ha / pest or weed control at 63 g/ha: Xanthium strumarium, 504 h; for pest or weed control at 63 g/ha: 63 g a.i./ha
Excerpt: as §1

[9] = test system: corn (Zea mays L.), ZEAMX; experiment: as above; settings: 2.2-2.5 leaf stage; for growth controlling degree, ZEAMX / plant injury at 31 g/ha: 31 g a.i./ha; for plant injury at 31 g/ha / plant injury at 63 g/ha: Zea mays, 504 h; for plant injury at 63 g/ha: 63 g a.i./ha
Excerpt: as §1

[10] = test system: velvetleaf (Abutilon theophrasti), ABUTH; experiment: as above; settings: 0.3-0.4 leaf stage; for growth controlling degree, ABUTH / pest or weed control at 31 g/ha: 31 g a.i./ha; for pest or weed control at 31 g/ha / pest or weed control at 63 g/ha: Abutilon theophrasti, 504 h; for pest or weed control at 63 g/ha: 63 g a.i./ha
Excerpt: as §1

[11] = test system: wheat (Triticum aestivum L.): TRZAX; experiment: Test Example 1: pre-emergence herbicidal activity (growth controlling degree); settings: 20th to 21st day after application
Excerpt: Upland field soil was put into a 1/170,000 ha pot, and seeds of various plants [1. barnyardgrass (Echinochloa crus-galli L.): ECHCC, 2. crabgrass (Digitaria sanguinalis L.): DIGSA, 3. green foxtail (Setaria viridis L.): SETVI, 4. redroot pigweed (Amaranthus retroflexus L.): AMARE, 5. prickly sida (Sida spinosa L.): SIDSP, 6. velvetleaf (Abutilon theophrasti): ABUTH, 7. common cocklebur (Xanthium strumarium L.): XANST, 8. rice (Oryza sativa L.): ORYSA, 9. wheat (Triticum aestivum L.): TRZAX, 10. corn (Zea mays L.): ZEAMX, 11. soybean (Glycine max Merr.): GLXMA] were sown. Then, one day after the sowing, a wettable powder or emulsifiable concentrate having the compound of the present invention formulated in accordance with a usual formulation method, was weighed so that the active ingredient would be a predetermined amount, and diluted with water in an amount of 500 L/ha. The herbicide adjusted was applied by a small size sprayer for pre-emergence treatment. On the 20th to 21st day after the application of the herbicide, the growth of the respective plants was visually observed, and the herbicidal effects were evaluated by growth controlling degrees (%) ranging from 0 (equivalent to the untreated control) to 100 (complete kill), whereby the results shown in Table 11, were obtained. Compound Nos. in Table 11 correspond to Compound Nos. in Table 1 to 7 given hereinbefore.

[12] = test system: wheat (Triticum aestivum L.), TRZAX; experiment: Test Example 2: post-emergence (foliage treatment) herbicidal activity (growth controlling degree); settings: 2.8 leaf stage
Excerpt: as §1

| SMILES | growth controlling degree, AMARE ([2]; 31 g a.i./ha) [%] | growth controlling degree, TRZAX ([11]; 250 g a.i./ha) [%] | plant injury at 31 g/ha [1] [%] | pest or weed control at 31 g/ha [3] [%] | pest or weed control at 31 g/ha [4] [%] | pest or weed control at 31 g/ha [5] [%] | pest or weed control at 31 g/ha [6] [%] | pest or weed control at 31 g/ha [7] [%] | pest or weed control at 31 g/ha [8] [%] | plant injury at 31 g/ha [9] [%] | pest or weed control at 31 g/ha [10] [%] | plant injury at 63 g/ha [1] [%] | pest or weed control at 63 g/ha [3] [%] | pest or weed control at 63 g/ha [4] [%] | pest or weed control at 63 g/ha [5] [%] | pest or weed control at 63 g/ha [6] [%] | pest or weed control at 63 g/ha [7] [%] | pest or weed control at 63 g/ha [8] [%] | plant injury at 63 g/ha [9] [%] | pest or weed control at 63 g/ha [10] [%] | other results |
| --- | --- | --- | --- | --- | --- | --- | --- | --- | --- | --- | --- | --- | --- | --- | --- | --- | --- | --- | --- | --- | --- |
| CC1CCc2c(c(Cl)cc(F)c2-c2nn3c(c2Cl)CCCC3)O1 (stereo not shown) [Compound 1-85] | 70 | – | – | – | – | – | – | – | – | – | – | – | – | – | – | – | – | – | – | – | growth controlling degree, ORYSA [1]: 40%; growth controlling degree, DIGSP [3]: 40%; growth controlling degree, ECHCG [4]: 70%; growth controlling degree, GLXMA [5]: 50%; growth controlling degree, SIDSP [6]: 95%; growth controlling degree, SETVI [7]: 80%; growth controlling degree, XANST [8]: 100%; growth controlling degree, ZEAMX [9]: 50%; growth controlling degree, ABUTH [10]: 100% |
| Fc1cc(Cl)c2c(c1-c1nn3c(c1Cl)CCCC3)CCCO2 [Compound 1-79, 3-chloro-2-(8-chloro-6-fluoro-3,4-dihydro-2H-1-benzopyran-5-yl)-4,5,6,7-tetrahydro-pyrazolo[1,5-a]pyridine] | 90 | 10 | 50 | 40 | 95 | 70 | 98 | 100 | 100 | 50 | 100 | – | – | – | – | – | – | – | – | – | – |
| Cn1nc(-c2c(F)cc(Cl)c3c2CCC(c2ccccc2)O3)c(Cl)c1OC(F)F (stereo not shown) [Compound 1-42] | – | 0 | – | – | – | – | – | – | – | – | – | 70 | 50 | 60 | 60 | 100 | 98 | 100 | 30 | 100 | growth controlling degree, AMARE ([2]; 63 g a.i./ha): 100% |
| CC1CCc2c(c(Cl)cc(F)c2-c2nn(C)c(C(F)(F)F)c2Cl)O1 (stereo not shown) [Compound 1-8] | 95 | – | 40 | 10 | 0 | 40 | 80 | 30 | 70 | 50 | 100 | – | – | – | – | – | – | – | – | – | – |
| CCCCCC1CCc2c(c(Cl)cc(F)c2-c2nn(C)c(OC(F)F)c2Cl)O1 (stereo not shown) [Compound 1-101] | 100 | – | – | – | – | – | – | – | – | – | – | – | – | – | – | – | – | – | – | – | growth controlling degree, TRZAX ([11]; 125 g a.i./ha): 20%; growth controlling degree, ORYSA [1]: 60%; growth controlling degree, DIGSP [3]: 100%; growth controlling degree, ECHCG [4]: 100%; growth controlling degree, GLXMA [5]: 70%; growth controlling degree, SIDSP [6]: 100%; growth controlling degree, SETVI [7]: 100%; growth controlling degree, XANST [8]: 100%; growth controlling degree, ZEAMX [9]: 70%; growth controlling degree, ABUTH [10]: 100%; growth controlling degree, TRZAX ([12]; 31 g a.i./ha): 30% |
| Cn1nc(-c2c(F)cc(Cl)c3c2CCCO3)c(Cl)c1OC(F)F [Compound 1-33, 4-chloro-3-(8-chloro-6-fluoro-3,4-dihydro-2H-1-benzopyran-5-yl)-5-(difluoromethoxy)-1-methyl-1H-pyrazole] | – | – | – | – | – | – | – | – | – | – | – | 98 | 100 | 100 | 100 | 100 | 100 | 100 | 100 | 100 | growth controlling degree, TRZAX ([11]; 125 g a.i./ha): 70%; growth controlling degree, AMARE ([2]; 63 g a.i./ha): 100%; growth controlling degree, TRZAX ([12]; 63 g a.i./ha): 98% |
| Fc1cc(Cl)c2c(c1-c1ncc(C(F)(F)F)cc1Cl)CCCO2 [Compound 7-2, 3-chloro-2-(8-chloro-6-fluoro-3,4-dihydro-2H-1-benzopyran-5-yl)-5-(trifluoromethyl)-pyridine] | – | 50 | – | – | – | – | – | – | – | – | – | 60 | 95 | 80 | 60 | 100 | 100 | 70 | 90 | 100 | – |
| Cn1nc(-c2c(F)cc(Cl)c3c2CCCO3)c(Cl)c1C(F)(F)F [Compound 1-2, 4-chloro-3-(8-chloro-6-fluoro-3,4-dihydro-2H-1-benzopyran-5-yl)-1-methyl-5-(trifluoromethyl)-1H-pyrazole] | – | – | – | – | – | – | – | – | – | – | – | 50 | 60 | 98 | 60 | 98 | 70 | 100 | 60 | 100 | growth controlling degree, AMARE ([2]; 63 g a.i./ha): 100%; growth controlling degree, TRZAX ([12]; 63 g a.i./ha): 30% |
| CC1CCc2c(c(Cl)cc(F)c2-c2nn(C)c(OC(F)F)c2Cl)O1 (stereo not shown) [Compound 1-39] | 100 | – | 98 | 100 | 100 | 100 | 100 | 100 | 100 | 98 | 100 | – | – | – | – | – | – | – | – | – | – |
